Test results published in US20180078615A1, “USE OF CCL2 TO INHIBIT ABNORMAL UTERINE BLEEDING” (UNIVERSITY OF SOUTH FLORIDA, priority 2015, published 2018).
“Also recorded” adds a separate entry of the source.

Key:
VSMCs [1] = assay: VSMC proliferation assay by BrdU incorporation; format: cell-based, human; conditions: 10^−7 M, 48-h treatment, mean±SEM; control 0.81±0.03
Description: (§1) VSMCs were grown in 96-well plates or 8-well chamber slides and incubated with 10^−7 M of MPA (Sigma-Aldrich) or ETO (Organon) or P4 (Sigma-Aldrich) or vehicle±rCCL2 (R&D Systems)±STAT1 inhibitor, 5′-methyl-thioadenosine (MTA; EMD Millipore) (19) for 48 or 72 h. VSMCs were then analyzed for apoptosis by an ELISA based apoptosis kit (Roche) or cleaved-caspase 3 immunostaining. VSMC proliferation was measured by BrdU incorporation Kit (Cell Signaling). (See further details in SI Materials and Methods).
VSMCs were thawed and cultured in T-75 cell culture flasks in medium 231 (M231; Life Technologies) with smooth muscle growth supplement (5% FBS; 2 ng/mL human basic fibroblast growth factor, 0.5 ng/mL human epidermal growth factor, 5 ng/mL heparin, 0.2 μg/mL insulin and 5 μg/mL BSA; Life Technologies) with 100 U/mL penicillin, 100 μg/mL streptomycin, and 0.25 μg/mL fungizone. Confluent VSMCs were washed twice with 1×PBS to remove residual serum, and then passaged (5,000 cells per well) in 96-well plates and incubated in parallel in M231 with 1% charcoal striped FBS with 0.1% ethanol (vehicle, control), 10^−7 M MPA (Sigma-Aldrich), 10^−7 M ETO (Organon), or 10^−7 M P4 (Sigma-Aldrich)±rCCL2 (monocyte chemotactic protein-1; R&D Systems)±STAT1 inhibitor, 5′-methyl-thioadenosine (MTA; EMD Millipore) for 48 or 72 h.
BrdU (Cell Signaling) 1× in 100-μL M231 was added to each well during the final 24 h of incubation. At the end of 48- or 72-h incubation period, medium was removed and the wells washed twice with ice-cold PBS. VSMC proliferation was measured using BrdU cell proliferation Kit (Cell Signaling) at room temperature. Cells was incubated in 100 μL per well of the fixing/denaturing solution for 30 min, and then replaced by 100 μL per well BrdU detection antibody solution for 1 h. Following three rinses with wash buffer, plates were incubated in HRP-conjugated secondary antibody (100 μL per well) for 30 min. After three additional rinses with wash buffer, tetramethylbenzidine substrate solution (100 μL per well) was added for 20 min and the reaction stopped by adding 100 μL per well STOP solution. Absorbance was measured at 450 nm using Spectra Max190 microplate reader (Molecular Devices) to detect BrdU incorporation in each well.

VSMCs [2] = assay: VSMC apoptosis assay (ELISA, cleaved caspase-3 immunostaining, nuclear fragmentation); format: cell-based, human; conditions: 10^−7 M, 48 h, vs control
Description: as §1
This assay detects late-stage apoptosis by quantifying specific mono- and oligonucleosomes in the cytoplasmic fraction of cell lysates using mouse monoclonal antibodies directed against DNA and histones. In late-stage apoptosis (following nuclear fragmentation), cell cytoplasm contains mono- and oligonucleosomes, absent in normal (nonapoptotic) cells. The nucleosomes contained in the sample bind via their histone component to the immobilized antihistone antibody. Anti-DNA peroxidase reacts with the DNA part in the nucleosome. After removal of unbound peroxidase conjugate, the amount of peroxidase retained in the immunocomplex is detected by measuring colorimetric reaction.
Apoptosis index was determined in a second set of experiments. VSMC cultures (10,000 cells per wells) were incubated in 96-well plates with the treatments described above, at room temperature. Briefly, at the end of 48- or 72-h incubation periods, cells were washed three times in ice-cold PBS and cell lysate prepared by incubating each well in 200-μL lysis buffer for 30 min, followed by centrifugation at 200×g for 10 min. Duplicate 20-μL supernatant of cytoplasmic fractions from each treatment were carefully pipetted into streptavidin-coated microplates. A 20-μL VSMC culture supernatant devoid of cell fractions was used as a negative control, and 1-, 5-, 10-, and 20-μL supernatants containing camptothecin-induced apoptotic cell fractions were used as positive controls (ELISA based cell death detection kit^plus, Roche Applied Science). Incubation buffer was used as background control (Roche Applied Science). Then, each well was brought to 100 μL by adding immunoreagent (peroxidase-conjugated anti-DNA complex) and incubated by gentle shaking (300 rpm) for 2 h. […] The immunoreaction was stopped with 100 μL ABTS Stop Solution and measured at 405 nm against 100 μL ABTS solution+100 μL ABTS stop solution as a blank (reference wavelength 490 nm) using Spectra Max190 microplate reader (Molecular Devices). […]
The first set of eight-well chamber slides was processed for cleaved caspase-3 immunocytochemistry. […] Cleaved caspase-3 immunoreactivity in groups was then evaluated as described for αSMA in the HSOCRE section. […]

SMILES	BrdU incorporation (VSMCs [1])	apoptotic index (VSMCs [2])	apoptotic index (VSMCs [2]; listed as WA)
CC(=O)O[C@]1(C(C)=O)CC[C@H]2[C@@H]3C[C@H](C)C4=CC(=O)CC[C@]4(C)[C@H]3CC[C@@]21C [MPA, medroxyprogesterone acetate]	0.31±0.02	did not affect	unaffected
C#C[C@]1(O)CC[C@H]2[C@@H]3CCC4=CC(=O)CC[C@@H]4[C@H]3C(=C)C[C@@]21CC [ETO, etonogestrel]	0.40±0.03	unaffected; also recorded: did not affect	
CC(=O)[C@H]1CC[C@H]2[C@@H]3CCC4=CC(=O)CC[C@]4(C)[C@H]3CC[C@]12C [P4, progesterone]	0.71±0.05	unaffected	
